According to patent publication US8394836B2, “Indoles and their therapeutic use” (Pulmagen Therapeutics (Asthma) Limited, priority 2007, dated 2013):

Experiments:
CRTH2 receptor [1] = target: T1, CRTH2 receptor (Homo sapiens, UniProt Q9Y5Y4); assay: CRTH2 radioligand binding assay ([3H]-PGD2 displacement, SPA); conditions: HEK cell membranes expressing the CRTH2 receptor; 1 nM [3H]-PGD2; Ki from IC50 by Cheng-Prusoff
T1 construct: expressed in transfected cells; host or cells: Human embryonic kidney (HEK) cells, used as membranes
T1 sequence (Q9Y5Y4 1-395): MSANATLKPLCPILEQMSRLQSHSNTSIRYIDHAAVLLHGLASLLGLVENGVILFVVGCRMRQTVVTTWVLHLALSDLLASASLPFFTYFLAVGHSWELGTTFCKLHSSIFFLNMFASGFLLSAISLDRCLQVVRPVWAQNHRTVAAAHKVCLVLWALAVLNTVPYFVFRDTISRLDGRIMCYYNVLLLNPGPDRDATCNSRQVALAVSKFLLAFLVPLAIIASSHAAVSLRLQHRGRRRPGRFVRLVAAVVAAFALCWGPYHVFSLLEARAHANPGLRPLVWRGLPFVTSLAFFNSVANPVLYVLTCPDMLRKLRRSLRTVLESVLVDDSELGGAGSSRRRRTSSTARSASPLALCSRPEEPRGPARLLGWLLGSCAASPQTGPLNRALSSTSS
Method: Compounds of the invention were tested using the following biological test method to determine their ability to displace PGD2 from the CRTH2 receptor.
CRTH2 Radioligand Binding Assay
The receptor binding assay is performed in a final volume of 200 μL binding buffer [10 mM BES (pH 7.4), 1 mM EDTA, 10 mM manganese chloride, 0.01% BSA] and 1 nM [^3H]-PGD2 (Amersham Biosciences UK Ltd). Ligands are added in assay buffer containing a constant amount of DMSO (1% by volume). Total binding is determined using 1% by volume of DMSO in assay buffer and non-specific binding is determined using 10 μM of unlabeled PGD2 (Sigma). Human embryonic kidney (HEK) cell membranes (3.5 μg) expressing the CRTH2 receptor are incubated with 1.5 mg wheatgerm agglutinin SPA beads and 1 nM [^3H]-PGD2 (Amersham Biosciences UK Ltd) and the mixture incubated for 3 hours at room temperature. Bound [^3H]-PGD2 is detected using a Microbeta TRILUX liquid scintillation counter (Perkin Elmer). Compound IC50 value is determined using a 6-point dose response curve in duplicate with a semi-log compound dilution series. IC50 calculations are performed using Excel and XLfit (Microsoft), and this value is used to determine a Ki value for the test compound using the Cheng-Prusoff equation.

CRTH2 receptor [2] = target: T1, CRTH2 receptor; assay: GTPγS functional assay; type: biochemical; conditions: HEK cell membranes expressing the CRTH2 receptor; PGD2 30 nM; [35S]-GTPγS; Ki from IC50 by Cheng-Prusoff
Method: The GTP[…]S Assay is performed in a final volume of […] assay buffer (20 mM HEPES pH 7.4, 10 mM MgCl2, 100 mM NaCl, 10 μg/mL saponin). DMSO concentrations are kept constant at 1% by volume. Human embryonic kidney (HEK) cell membranes (3.5 μg) expressing the CRTH2 receptor are incubated with the compounds for 15 min at 30° C. prior to addition of PGD2 (30 nM final concentration) and GTP (10 μM final concentration). The assay solutions are then incubated for 30 minutes at 30° C., followed by addition of [^35S]-GTPγS (0.1 nM final concentration). The assay plate is than shaken and incubated for 5 minutes at 30° C. Finally, SPA beads (Amersham Biosciences, UK) are added to a final concentration of 1.5 mg/well and the plate shaken and incubated for 30 minute at 30° C. The sealed plate is centrifuged at 1000 g for 10 mins at 30° C. and the bound [^35S]-GTPγS is detected on Microbeta scintillation counter (Perkin Elmer). Compound IC50 value is determined using a 6-point dose response curve in duplicate with a semi-log compound dilution series. IC50 calculations are performed using Excel and XLfit (Microsoft), and this value is used to determine a Ki value for the test compound using the Cheng-Prusoff equation.

Compound	Ki (CRTH2 receptor [1])	Ki (CRTH2 receptor [2])
Cc1c(Cc2sccc2S(=O)(=O)c2ccc(F)cc2)c2cc(F)ccc2n1CC(=O)O [Example 1, {5-fluoro-3-[3-(4-fluorobenzenesulfonyl)thiophen-2-ylmethyl]-2-methylindol-1-yl}acetic acid]	1.5 nM	< 10 nM
Cc1c(Cc2sccc2S(=O)(=O)c2ccccn2)c2cc(F)ccc2n1CC(=O)O [Example 16, {5-fluoro-2-methyl-3-[3-(pyridine-2-sulfonyl)thiophen-2-ylmethyl]indol-1-yl}acetic acid]	2.4 nM	< 10 nM
Cc1c(Cc2ccccc2S(=O)(=O)N(C)c2ccccc2)c2cc(F)ccc2n1CC(=O)O [Example 21, {5-fluoro-2-methyl-3-[2-(methylphenylsulfamoyl)benzyl]indol-1-yl}acetic acid]	0.6 nM	–
Cc1c(Cc2cccnc2S(=O)(=O)c2ccccc2)c2cc(Cl)ccc2n1CC(=O)O [Example 26, {5-chloro-3-[2-(benzenesulfonyl)pyridine-3-ylmethyl]-2-methylindol-1-yl}acetic acid]	4.5 nM	< 10 nM
